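Five concentrations, 48 hours, 96-well plates. TGI denotes the concentration required for complete inhibition of growth.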
How the values were obtained:
Assay in all cases: growth of human tumour cells (NCI), 48 h
SK-MEL-2 melanoma = tested on: SK-MEL-2 melanoma
SK-MEL-5 melanoma = tested on: SK-MEL-5 melanoma
EKVX NSCLC = tested on: EKVX NSCLC
SNB-19 CNS = tested on: SNB-19 CNS
MDA-MB-435 = tested on: MDA-MB-435
SW-620 colon = tested on: SW-620 colon
HCT-116 colon = tested on: HCT-116 colon
SK-MEL-28 melanoma = tested on: SK-MEL-28 melanoma
HOP-62 NSCLC = tested on: HOP-62 NSCLC
UO-31 renal = tested on: UO-31 renal
HCT-15 colon = tested on: HCT-15 colon
HCC-2998 colon = tested on: HCC-2998 colon
OVCAR-5 ovarian = tested on: OVCAR-5 ovarian
OVCAR-4 ovarian = tested on: OVCAR-4 ovarian
SNB-75 CNS = tested on: SNB-75 CNS
HT29 colon = tested on: HT29 colon
786-0 renal = tested on: 786-0 renal
MDA-MB-231 breast = tested on: MDA-MB-231 breast
HOP-92 NSCLC = tested on: HOP-92 NSCLC
KM12 colon = tested on: KM12 colon
DU-145 prostate = tested on: DU-145 prostate
CAKI-1 renal = tested on: CAKI-1 renal
U251 CNS = tested on: U251 CNS
SF-295 CNS = tested on: SF-295 CNS
IGROV1 ovarian = tested on: IGROV1 ovarian
M14 melanoma = tested on: M14 melanoma
RXF 393 renal = tested on: RXF 393 renal
TK-10 renal = tested on: TK-10 renal
MDA-N = tested on: MDA-N
HS 578T breast = tested on: HS 578T breast
RPMI-8226 leukemia = tested on: RPMI-8226 leukemia
MALME-3M melanoma = tested on: MALME-3M melanoma
SN12C renal = tested on: SN12C renal
K-562 leukemia = tested on: K-562 leukemia
UACC-257 melanoma = tested on: UACC-257 melanoma
OVCAR-8 ovarian = tested on: OVCAR-8 ovarian
HL-60(TB) leukemia = tested on: HL-60(TB) leukemia
CCRF-CEM leukemia = tested on: CCRF-CEM leukemia
ACHN renal = tested on: ACHN renal
T-47D breast = tested on: T-47D breast
SF-268 CNS = tested on: SF-268 CNS
UACC-62 melanoma = tested on: UACC-62 melanoma
MOLT-4 leukemia = tested on: MOLT-4 leukemia
SK-OV-3 ovarian = tested on: SK-OV-3 ovarian
NCI-H23 lung = tested on: NCI-H23 lung
A549 NSCLC = tested on: A549 NSCLC
NCI-H226 lung = tested on: NCI-H226 lung
A498 renal = tested on: A498 renal
COLO 205 colon = tested on: COLO 205 colon
LOX IMVI melanoma = tested on: LOX IMVI melanoma
PC-3 prostate = tested on: PC-3 prostate
MCF7 breast = tested on: MCF7 breast
NCI/ADR-RES ovarian = tested on: NCI/ADR-RES ovarian
BT-549 breast = tested on: BT-549 breast
OVCAR-3 ovarian = tested on: OVCAR-3 ovarian
SR leukemia = tested on: SR leukemia
NCI-H460 lung = tested on: NCI-H460 lung

Cc1ccsc1/C=N/Nc1ncccn1
TGI (SK-MEL-2 melanoma): > 100 µM
TGI (SK-MEL-5 melanoma): > 100 µM
TGI (EKVX NSCLC): > 100 µM
TGI (SNB-19 CNS): > 100 µM
TGI (MDA-MB-435): > 100 µM
TGI (SW-620 colon): > 100 µM
TGI (HCT-116 colon): > 100 µM
TGI (SK-MEL-28 melanoma): > 100 µM
TGI (HOP-62 NSCLC): > 100 µM
TGI (UO-31 renal): > 100 µM
TGI (HCT-15 colon): > 100 µM
TGI (HCC-2998 colon): > 100 µM
TGI (OVCAR-5 ovarian): > 100 µM
TGI (OVCAR-4 ovarian): > 100 µM
TGI (SNB-75 CNS): > 100 µM
TGI (HT29 colon): > 100 µM
TGI (786-0 renal): > 100 µM
TGI (MDA-MB-231 breast): > 100 µM
TGI (HOP-92 NSCLC): > 100 µM
TGI (KM12 colon): > 100 µM
TGI (DU-145 prostate): > 100 µM
TGI (CAKI-1 renal): > 100 µM
TGI (U251 CNS): > 100 µM
TGI (SF-295 CNS): > 100 µM
TGI (IGROV1 ovarian): > 100 µM
TGI (M14 melanoma): > 100 µM
TGI (RXF 393 renal): > 100 µM
TGI (TK-10 renal): > 100 µM
TGI (MDA-N): > 100 µM
TGI (HS 578T breast): > 100 µM
TGI (RPMI-8226 leukemia): > 100 µM
TGI (MALME-3M melanoma): > 100 µM
TGI (SN12C renal): > 100 µM
TGI (K-562 leukemia): > 100 µM
TGI (UACC-257 melanoma): > 100 µM
TGI (OVCAR-8 ovarian): > 100 µM
TGI (HL-60(TB) leukemia): > 100 µM
TGI (CCRF-CEM leukemia): > 100 µM
TGI (ACHN renal): > 100 µM
TGI (T-47D breast): > 100 µM
TGI (SF-268 CNS): > 100 µM
TGI (UACC-62 melanoma): > 100 µM
TGI (MOLT-4 leukemia): > 100 µM
TGI (SK-OV-3 ovarian): > 100 µM
TGI (NCI-H23 lung): > 100 µM
TGI (A549 NSCLC): > 100 µM
TGI (NCI-H226 lung): > 100 µM
TGI (A498 renal): > 100 µM
TGI (COLO 205 colon): > 100 µM
TGI (LOX IMVI melanoma): > 100 µM
TGI (PC-3 prostate): > 100 µM
TGI (MCF7 breast): > 100 µM
TGI (NCI/ADR-RES ovarian): > 100 µM
TGI (BT-549 breast): > 100 µM
TGI (OVCAR-3 ovarian): > 100 µM

Oc1ccc(-c2nc(-c3cccnc3)c(-c3ccc(F)cc3)[nH]2)cc1
TGI (SK-MEL-2 melanoma): 34.6 µM
TGI (SK-MEL-5 melanoma): 33.8 µM
TGI (EKVX NSCLC): 41.7 µM
TGI (SNB-19 CNS): 60.8 µM
TGI (MDA-MB-435): 31.1 µM
TGI (SW-620 colon): 35.5 µM
TGI (HCT-116 colon): 32.9 µM
TGI (SK-MEL-28 melanoma): 35.9 µM
TGI (HOP-62 NSCLC): 36.7 µM
TGI (HCT-15 colon): 64.5 µM
TGI (HCC-2998 colon): 40.3 µM
TGI (OVCAR-5 ovarian): 68 µM
TGI (OVCAR-4 ovarian): 52.7 µM
TGI (SNB-75 CNS): 35 µM
TGI (HT29 colon): 32.5 µM
TGI (786-0 renal): 59 µM
TGI (MDA-MB-231 breast): 41.7 µM
TGI (KM12 colon): 33.2 µM
TGI (DU-145 prostate): 63.1 µM
TGI (SR leukemia): 85 µM
TGI (CAKI-1 renal): 78.6 µM
TGI (U251 CNS): 32.9 µM
TGI (SF-295 CNS): 32 µM
TGI (IGROV1 ovarian): 33.8 µM
TGI (M14 melanoma): 32.9 µM
TGI (RXF 393 renal): 33.9 µM
TGI (TK-10 renal): 36.2 µM
TGI (MDA-N): 37.5 µM
TGI (HS 578T breast): 46.4 µM
TGI (RPMI-8226 leukemia): 39.8 µM
TGI (MALME-3M melanoma): 32.6 µM
TGI (SN12C renal): 54.6 µM
TGI (K-562 leukemia): 54.6 µM
TGI (UACC-257 melanoma): 31.5 µM
TGI (OVCAR-8 ovarian): 34.3 µM
TGI (HL-60(TB) leukemia): 52 µM
TGI (CCRF-CEM leukemia): 42.1 µM
TGI (ACHN renal): 58.5 µM
TGI (T-47D breast): 43.8 µM
TGI (SF-268 CNS): 49.8 µM
TGI (UACC-62 melanoma): 29.6 µM
TGI (MOLT-4 leukemia): 33.2 µM
TGI (SK-OV-3 ovarian): 57.1 µM
TGI (NCI-H460 lung): 63.9 µM
TGI (NCI-H23 lung): 25.5 µM
TGI (A549 NSCLC): 65 µM
TGI (NCI-H226 lung): 46.8 µM
TGI (COLO 205 colon): 36.8 µM
TGI (LOX IMVI melanoma): 28.5 µM
TGI (PC-3 prostate): 35.2 µM
TGI (MCF7 breast): 32.7 µM
TGI (NCI/ADR-RES ovarian): 42.6 µM
TGI (BT-549 breast): 32.6 µM
TGI (OVCAR-3 ovarian): 31.1 µM

Reference: PubChem BioAssay (NCI)
